{"source": "paper PMC7522982", "about": "“PKIS deep dive yields a chemical starting point for dark kinases and a cell active BRSK2 inhibitor” (Scientific Reports, 2020)", "key": {"[1]": {"target": "T1, BRSK1 (Homo sapiens, UniProt Q8TDC3)", "T1 sequence (Q8TDC3 1-778)": "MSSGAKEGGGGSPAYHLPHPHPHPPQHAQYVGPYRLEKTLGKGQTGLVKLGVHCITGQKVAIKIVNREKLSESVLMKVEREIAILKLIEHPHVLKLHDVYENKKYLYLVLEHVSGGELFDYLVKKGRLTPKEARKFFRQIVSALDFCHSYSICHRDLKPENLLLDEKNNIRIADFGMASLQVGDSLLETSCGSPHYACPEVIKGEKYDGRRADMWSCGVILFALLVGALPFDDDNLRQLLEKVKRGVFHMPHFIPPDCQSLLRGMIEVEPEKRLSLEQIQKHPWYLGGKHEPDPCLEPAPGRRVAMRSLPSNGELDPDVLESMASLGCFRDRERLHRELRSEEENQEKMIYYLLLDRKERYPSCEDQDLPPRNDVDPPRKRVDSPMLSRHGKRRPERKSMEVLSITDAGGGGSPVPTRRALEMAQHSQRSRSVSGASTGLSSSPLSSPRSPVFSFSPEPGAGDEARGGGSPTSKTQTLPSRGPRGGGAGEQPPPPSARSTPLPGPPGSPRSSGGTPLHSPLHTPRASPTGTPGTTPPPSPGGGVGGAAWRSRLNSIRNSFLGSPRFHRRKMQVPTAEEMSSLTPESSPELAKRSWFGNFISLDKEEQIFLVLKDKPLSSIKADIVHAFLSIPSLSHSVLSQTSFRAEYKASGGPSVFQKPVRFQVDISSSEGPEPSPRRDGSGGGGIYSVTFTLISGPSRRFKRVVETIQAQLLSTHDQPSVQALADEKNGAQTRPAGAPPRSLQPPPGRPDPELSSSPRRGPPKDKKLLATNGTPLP", "parameters": "purchased Eurofins DiscoverX Corporation; method as in earlier work", "conditions": "cited from earlier work"}, "[2]": {"target": "PIM3 (Homo sapiens, UniProt Q86V86)", "parameters": "purchased Eurofins DiscoverX (scanMAX) / Eurofins enzymatic assays; method as in earlier work", "conditions": "cited from earlier work"}, "[3]": {"target": "T2, RPS6KA3/RSK2 (Homo sapiens, UniProt P51812)", "T2 construct": "purchased Eurofins", "assay": "Eurofins kinase enzymatic radiometric assay", "type": "biochemical", "conditions": "Km of ATP, 9-point curve in duplicate", "source_text": "Due to our interest in the activity of GW296115 on several understudied IDG kinases, we collected full dose–response curves for all wild type kinases inhibited ≥ 75% in the DiscoverX panel that were offered by Eurofins. Having data in orthogonal formats is a powerful way to confirm inhibitory activity and adds rigor to our results. Eurofins has kinase enzymatic radiometric assays for 35 of the kinases on this list (Table S2) and a kinase enzymatic LANCE assay for one additional kinase (MAP2K5/MEK5).\nEurofins kinase enzymatic radiometric assays were carried out at the Km of ATP in dose–response (9-pt curve in duplicate) for each kinase for which it was offered."}, "[4]": {"system": "PDGFRβ", "parameters": "method as in PMID 26501955", "conditions": "cited from earlier work"}, "[5]": {"target": "T3, PRKAA2 (Homo sapiens, UniProt P54646)", "T3 construct": "purchased Eurofins DiscoverX Corporation", "assay": "DiscoverX scanMAX competition binding assay", "conditions": "read-out: % inhibition in the DiscoverX scanMAX panel at 1 μM", "source_text": "(§1) Based on its narrow profile when tested in the combined Nanosyn and TSA panels, GW296115 was included in the recently released Kinase Chemogenomic Set (KCGS)[15]. All of the data presented in the Introduction section was collected prior to the inclusion of GW296115 in KCGS and everything that follows has been subsequently generated. Since its inclusion in PKIS and more recently KCGS, we have carried out a broader round of screening at DiscoverX. This profiling data has not been previously released and is reported here for the first time. GW296115 was profiled against 403 wild type human kinases at 1 μM using the DiscoverX scanMAX screening platform, which employs an active site-directed competition binding assay to quantitatively measure interactions between test compounds and kinases, [16]. GW296115 inhibited 25 kinases > 90% at 1 μM, resulting in a selectivity index (S10) of 0.062 at 1 μM (Table S2, Fig. 1C)[17].\nTo ascertain selectivity of GW296115 and validate our DiscoverX screening results using an orthogonal assay format, we chose to utilize Eurofins enzymatic kinase assays in dose–response at the Km of ATP.\n(§2) The scanMAX assays were performed at Eurofins DiscoverX Corporation as previously described."}, "[6]": {"target": "T4, STK17B/DRAK2 (Homo sapiens, UniProt O94768)", "T4 sequence (O94768 1-372)": "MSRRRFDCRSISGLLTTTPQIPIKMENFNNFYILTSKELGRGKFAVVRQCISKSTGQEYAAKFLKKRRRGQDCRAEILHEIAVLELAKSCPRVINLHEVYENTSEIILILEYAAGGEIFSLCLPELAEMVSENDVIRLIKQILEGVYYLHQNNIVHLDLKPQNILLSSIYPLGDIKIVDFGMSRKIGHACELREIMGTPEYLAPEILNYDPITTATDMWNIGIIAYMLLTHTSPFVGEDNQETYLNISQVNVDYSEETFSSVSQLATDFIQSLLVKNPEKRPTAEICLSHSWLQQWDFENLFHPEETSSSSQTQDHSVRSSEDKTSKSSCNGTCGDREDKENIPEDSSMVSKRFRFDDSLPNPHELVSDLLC", "parameters": "purchased Eurofins; method as in earlier work", "conditions": "cited from earlier work"}, "[7]": {"target": "T5, GAK (Homo sapiens, UniProt O14976)", "T5 construct": "purchased Eurofins DiscoverX (scanMAX) / Eurofins enzymatic assays", "T5 sequence (O14976 whole entry)": "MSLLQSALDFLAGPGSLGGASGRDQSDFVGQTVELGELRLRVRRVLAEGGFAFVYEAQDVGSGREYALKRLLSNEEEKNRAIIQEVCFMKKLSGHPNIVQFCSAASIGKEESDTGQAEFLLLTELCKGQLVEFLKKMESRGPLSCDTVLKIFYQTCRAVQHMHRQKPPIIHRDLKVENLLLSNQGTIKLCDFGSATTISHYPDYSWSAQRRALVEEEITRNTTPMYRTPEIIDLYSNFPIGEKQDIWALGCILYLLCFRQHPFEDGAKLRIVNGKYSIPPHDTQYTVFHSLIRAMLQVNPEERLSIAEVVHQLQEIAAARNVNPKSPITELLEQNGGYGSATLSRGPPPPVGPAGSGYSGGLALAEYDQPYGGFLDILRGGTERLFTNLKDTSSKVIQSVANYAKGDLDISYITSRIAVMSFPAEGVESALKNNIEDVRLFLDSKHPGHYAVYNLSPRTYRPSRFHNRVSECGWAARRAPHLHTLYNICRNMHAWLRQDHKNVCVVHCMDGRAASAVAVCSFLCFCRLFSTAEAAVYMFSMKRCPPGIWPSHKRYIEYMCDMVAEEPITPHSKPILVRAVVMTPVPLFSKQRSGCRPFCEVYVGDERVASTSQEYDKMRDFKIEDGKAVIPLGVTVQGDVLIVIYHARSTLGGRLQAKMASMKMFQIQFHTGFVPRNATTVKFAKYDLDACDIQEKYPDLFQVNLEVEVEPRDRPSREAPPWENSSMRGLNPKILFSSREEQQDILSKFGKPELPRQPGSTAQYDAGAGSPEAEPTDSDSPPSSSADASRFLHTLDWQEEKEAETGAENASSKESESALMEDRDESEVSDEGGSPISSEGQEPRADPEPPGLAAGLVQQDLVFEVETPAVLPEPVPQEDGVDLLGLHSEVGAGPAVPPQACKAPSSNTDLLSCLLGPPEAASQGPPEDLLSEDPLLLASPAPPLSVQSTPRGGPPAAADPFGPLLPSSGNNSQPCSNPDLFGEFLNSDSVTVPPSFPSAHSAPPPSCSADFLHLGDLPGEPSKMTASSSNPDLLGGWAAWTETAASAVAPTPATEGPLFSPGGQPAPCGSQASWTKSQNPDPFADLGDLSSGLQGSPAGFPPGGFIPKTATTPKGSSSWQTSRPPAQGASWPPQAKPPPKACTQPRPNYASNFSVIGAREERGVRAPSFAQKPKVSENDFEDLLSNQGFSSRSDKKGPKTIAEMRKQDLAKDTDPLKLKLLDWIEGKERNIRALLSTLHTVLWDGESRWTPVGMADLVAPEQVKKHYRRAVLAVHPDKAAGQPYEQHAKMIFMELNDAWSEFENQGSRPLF", "assay": "DiscoverX scanMAX competition binding assay", "source_text": "as §1, §2"}, "[8]": {"target": "T6, MAP3K19 (Homo sapiens, UniProt Q56UN5)", "T6 construct": "purchased Eurofins DiscoverX (scanMAX) / Eurofins enzymatic assays", "T6 sequence (Q56UN5 whole entry)": "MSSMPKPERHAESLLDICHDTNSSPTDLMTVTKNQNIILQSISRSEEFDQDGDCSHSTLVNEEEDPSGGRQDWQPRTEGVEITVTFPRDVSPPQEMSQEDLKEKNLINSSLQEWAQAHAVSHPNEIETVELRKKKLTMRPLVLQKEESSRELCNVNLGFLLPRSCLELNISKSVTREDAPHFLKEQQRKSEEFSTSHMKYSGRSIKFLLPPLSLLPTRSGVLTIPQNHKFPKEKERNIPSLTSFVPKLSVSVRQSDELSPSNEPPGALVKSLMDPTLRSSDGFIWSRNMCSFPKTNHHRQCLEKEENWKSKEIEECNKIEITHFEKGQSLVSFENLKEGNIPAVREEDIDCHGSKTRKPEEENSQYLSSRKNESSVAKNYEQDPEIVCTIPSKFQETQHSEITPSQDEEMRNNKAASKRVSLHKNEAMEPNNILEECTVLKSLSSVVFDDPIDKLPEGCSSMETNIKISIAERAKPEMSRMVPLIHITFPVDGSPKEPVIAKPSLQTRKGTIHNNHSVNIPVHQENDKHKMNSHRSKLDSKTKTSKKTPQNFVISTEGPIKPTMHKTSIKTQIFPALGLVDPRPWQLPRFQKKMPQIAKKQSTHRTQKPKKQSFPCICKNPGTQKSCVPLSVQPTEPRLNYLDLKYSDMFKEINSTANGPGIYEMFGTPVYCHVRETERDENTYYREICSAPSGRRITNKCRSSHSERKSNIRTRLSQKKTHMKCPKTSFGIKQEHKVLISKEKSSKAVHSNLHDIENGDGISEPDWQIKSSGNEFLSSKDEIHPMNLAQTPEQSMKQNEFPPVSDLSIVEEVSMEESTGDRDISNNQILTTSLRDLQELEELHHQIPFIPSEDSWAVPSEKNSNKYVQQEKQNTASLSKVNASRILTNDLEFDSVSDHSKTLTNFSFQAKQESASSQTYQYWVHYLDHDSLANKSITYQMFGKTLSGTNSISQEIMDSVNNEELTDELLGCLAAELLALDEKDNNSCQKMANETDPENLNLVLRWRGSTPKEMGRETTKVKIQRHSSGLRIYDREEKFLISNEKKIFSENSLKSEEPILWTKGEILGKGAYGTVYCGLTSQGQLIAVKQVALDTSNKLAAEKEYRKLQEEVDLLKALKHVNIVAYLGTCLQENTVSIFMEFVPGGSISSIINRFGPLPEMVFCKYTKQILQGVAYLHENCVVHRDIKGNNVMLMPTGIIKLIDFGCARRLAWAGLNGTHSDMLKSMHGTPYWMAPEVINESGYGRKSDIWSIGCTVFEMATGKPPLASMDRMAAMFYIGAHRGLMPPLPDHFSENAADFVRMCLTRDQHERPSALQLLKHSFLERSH", "assay": "DiscoverX scanMAX competition binding assay", "source_text": "as §1, §2"}, "[9]": {"target": "T7, EPHB6 (Homo sapiens, UniProt O15197)", "T7 construct": "purchased Eurofins DiscoverX Corporation", "T7 sequence (O15197 32-1021)": "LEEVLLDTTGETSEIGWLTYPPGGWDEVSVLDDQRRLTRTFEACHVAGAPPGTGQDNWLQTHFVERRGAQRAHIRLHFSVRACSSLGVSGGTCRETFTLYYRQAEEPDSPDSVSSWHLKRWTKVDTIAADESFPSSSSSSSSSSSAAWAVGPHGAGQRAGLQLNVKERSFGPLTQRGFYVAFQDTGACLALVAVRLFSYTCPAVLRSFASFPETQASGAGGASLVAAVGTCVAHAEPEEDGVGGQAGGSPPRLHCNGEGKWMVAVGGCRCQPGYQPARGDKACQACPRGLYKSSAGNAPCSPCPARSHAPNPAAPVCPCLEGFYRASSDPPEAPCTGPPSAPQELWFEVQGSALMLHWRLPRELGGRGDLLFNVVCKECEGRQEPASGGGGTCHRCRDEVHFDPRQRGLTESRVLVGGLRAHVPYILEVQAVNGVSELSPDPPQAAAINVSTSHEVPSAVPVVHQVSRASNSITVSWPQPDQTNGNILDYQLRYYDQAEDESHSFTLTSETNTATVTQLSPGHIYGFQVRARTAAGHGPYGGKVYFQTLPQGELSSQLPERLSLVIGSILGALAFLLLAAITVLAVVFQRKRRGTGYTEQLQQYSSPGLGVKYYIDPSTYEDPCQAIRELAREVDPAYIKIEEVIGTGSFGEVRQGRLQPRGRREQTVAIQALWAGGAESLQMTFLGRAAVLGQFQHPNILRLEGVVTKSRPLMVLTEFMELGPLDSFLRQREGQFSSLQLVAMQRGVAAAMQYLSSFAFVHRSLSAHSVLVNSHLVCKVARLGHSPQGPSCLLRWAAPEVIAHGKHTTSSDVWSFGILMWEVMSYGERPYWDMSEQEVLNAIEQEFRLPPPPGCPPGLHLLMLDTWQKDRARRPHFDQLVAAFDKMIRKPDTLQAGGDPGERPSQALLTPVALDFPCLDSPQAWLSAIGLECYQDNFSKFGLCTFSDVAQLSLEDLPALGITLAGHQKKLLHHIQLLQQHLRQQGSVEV", "assay": "DiscoverX scanMAX competition binding assay", "source_text": "as §1, §2"}, "[10]": {"target": "T8, RIOK3 (Homo sapiens, UniProt O14730)", "T8 construct": "purchased Eurofins DiscoverX (scanMAX) / Eurofins enzymatic assays", "T8 sequence (O14730 whole entry)": "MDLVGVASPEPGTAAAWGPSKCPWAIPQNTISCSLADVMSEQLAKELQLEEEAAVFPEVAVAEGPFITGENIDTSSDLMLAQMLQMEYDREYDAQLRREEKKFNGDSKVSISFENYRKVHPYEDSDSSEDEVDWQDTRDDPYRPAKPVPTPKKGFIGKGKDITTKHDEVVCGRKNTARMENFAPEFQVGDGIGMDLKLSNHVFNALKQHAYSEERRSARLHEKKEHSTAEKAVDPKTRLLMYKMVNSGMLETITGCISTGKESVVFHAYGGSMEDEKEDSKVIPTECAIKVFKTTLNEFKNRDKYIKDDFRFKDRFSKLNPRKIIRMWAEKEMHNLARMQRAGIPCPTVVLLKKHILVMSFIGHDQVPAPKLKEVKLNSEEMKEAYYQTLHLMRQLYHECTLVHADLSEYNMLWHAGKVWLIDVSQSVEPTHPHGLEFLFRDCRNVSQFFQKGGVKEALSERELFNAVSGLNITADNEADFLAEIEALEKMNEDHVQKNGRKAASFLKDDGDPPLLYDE", "assay": "DiscoverX scanMAX competition binding assay", "source_text": "as §1, §2"}, "[11]": {"target": "T9, MAP2K5 (Homo sapiens, UniProt Q13163)", "T9 construct": "purchased Eurofins DiscoverX (scanMAX) / Eurofins enzymatic assays", "T9 sequence (Q13163 whole entry)": "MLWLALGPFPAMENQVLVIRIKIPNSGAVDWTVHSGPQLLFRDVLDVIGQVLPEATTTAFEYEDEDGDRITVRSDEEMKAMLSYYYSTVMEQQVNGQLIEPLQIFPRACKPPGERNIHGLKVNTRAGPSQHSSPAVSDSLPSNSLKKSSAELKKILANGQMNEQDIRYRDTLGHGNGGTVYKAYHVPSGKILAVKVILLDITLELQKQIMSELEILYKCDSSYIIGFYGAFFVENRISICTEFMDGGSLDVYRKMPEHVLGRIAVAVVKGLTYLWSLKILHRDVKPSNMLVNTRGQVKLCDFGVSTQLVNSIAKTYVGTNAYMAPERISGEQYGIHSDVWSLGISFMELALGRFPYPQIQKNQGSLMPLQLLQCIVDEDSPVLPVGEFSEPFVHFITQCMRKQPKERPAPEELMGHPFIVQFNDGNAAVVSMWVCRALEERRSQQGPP", "assay": "DiscoverX scanMAX competition binding assay", "source_text": "as §1, §2"}, "[12]": {"system": "PDGFRα", "parameters": "method as in PMID 26501955", "conditions": "cited from earlier work"}, "[13]": {"system": "60 cancer cell lines", "parameters": "method as in PMID 26501955", "conditions": "cited from earlier work"}, "[14]": {"system": "panel of 224 recombinant kinases", "parameters": "method as in PMID 26501955", "conditions": "Nanosyn; cited from earlier work"}, "[15]": {"system": "PRKAA2", "parameters": "method as in earlier work", "conditions": "cited from earlier work"}, "[16]": {"system": "GAK", "parameters": "method as in earlier work", "conditions": "cited from earlier work"}}, "data": [{"smiles": "COc1ccc2[nH]c3c4[nH]c5ccc(OC)cc5c4c4c(c3c2c1)C(=O)NC4=O", "note": "[GW296115]", "values": [{"measurement": "Nanosyn % Inhibition at 1 μM", "setting": "[1]", "value": 102, "unit": "%"}, {"measurement": "Nanosyn % Inhibition at 1 μM", "setting": "[2]", "value": 83, "unit": "%"}, {"measurement": "IC50", "setting": "[3]", "value": 11, "unit": "nM"}, {"measurement": "Nanosyn % Inhibition at 1 μM", "setting": "[4]", "value": 85, "unit": "%"}, {"measurement": "inhibition at 1 µM", "setting": "[5]", "value": 20, "unit": "%"}, {"measurement": "TSA ΔTm at 10 μM (°C)", "setting": "[6]", "value": 18.3, "unit": "°C"}, {"measurement": "inhibition at 1 µM", "setting": "[7]", "value": 96.7, "unit": "%"}, {"measurement": "inhibition at 1 µM", "setting": "[8]", "value": 100, "unit": "%"}, {"measurement": "inhibition at 1 µM", "setting": "[9]", "value": 85, "unit": "%"}, {"measurement": "inhibition at 1 µM", "setting": "[10]", "value": 89, "unit": "%"}, {"measurement": "inhibition at 1 µM", "setting": "[11]", "value": 99.5, "unit": "%"}, {"measurement": "Nanosyn % Inhibition at 1 μM", "setting": "[12]", "value": 84, "unit": "%"}, {"measurement": "effect on cell growth, NCI60 panel", "setting": "[13]", "value": "does not impact cell growth"}, {"measurement": "inhibition at 100 nM of the 3 kinases inhibited > 90% at 1 μM", "setting": "[14]", "value": "> 70", "unit": "%"}, {"measurement": "TSA ΔTm at 10 μM (°C)", "setting": "[15]", "value": 10.6, "unit": "°C"}, {"measurement": "TSA ΔTm at 10 μM (°C)", "setting": "[16]", "value": 8.4, "unit": "°C"}]}]}
